PubChem BioAssay (NCI)
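1) Cells in 96-well plates. 2) Compound, 48 h, 5 concentrations. 3) Linear interpolation between surrounding doses. 4) Unreached endpoint = highest concentration. At the TGI there is no net growth.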

Key:
Test in all cases: NCI-60 cell line screen, 48 h
SK-MEL-28 melanoma = system: SK-MEL-28 melanoma
COLO 205 colon = system: COLO 205 colon
SNB-78 CNS = system: SNB-78 CNS
HOP-18 NSCLC = system: HOP-18 NSCLC
KM20L2 colon = system: KM20L2 colon
CCRF-CEM leukemia = system: CCRF-CEM leukemia
OVCAR-4 ovarian = system: OVCAR-4 ovarian
HOP-92 NSCLC = system: HOP-92 NSCLC
XF 498 CNS = system: XF 498 CNS
NCI-H522 lung = system: NCI-H522 lung
UACC-257 melanoma = system: UACC-257 melanoma
NCI-H23 lung = system: NCI-H23 lung
ACHN renal = system: ACHN renal
M19-MEL melanoma = system: M19-MEL melanoma
SF-539 CNS = system: SF-539 CNS
LXFL 529 NSCLC = system: LXFL 529 NSCLC
SNB-75 CNS = system: SNB-75 CNS
UACC-62 melanoma = system: UACC-62 melanoma
EKVX NSCLC = system: EKVX NSCLC
OVCAR-3 ovarian = system: OVCAR-3 ovarian
786-0 renal = system: 786-0 renal
HOP-62 NSCLC = system: HOP-62 NSCLC
KM12 colon = system: KM12 colon
SNB-19 CNS = system: SNB-19 CNS
DLD-1 colon = system: DLD-1 colon
NCI-H460 lung = system: NCI-H460 lung
OVCAR-5 ovarian = system: OVCAR-5 ovarian
SK-MEL-2 melanoma = system: SK-MEL-2 melanoma
HCT-15 colon = system: HCT-15 colon
HCT-116 colon = system: HCT-116 colon
DMS 273 small cell lung = system: DMS 273 small cell lung
SR leukemia = system: SR leukemia
K-562 leukemia = system: K-562 leukemia
OVCAR-8 ovarian = system: OVCAR-8 ovarian
SN12C renal = system: SN12C renal
HL-60(TB) leukemia = system: HL-60(TB) leukemia
A498 renal = system: A498 renal
A549 NSCLC = system: A549 NSCLC
SF-295 CNS = system: SF-295 CNS
M14 melanoma = system: M14 melanoma
SK-OV-3 ovarian = system: SK-OV-3 ovarian
HT29 colon = system: HT29 colon
MALME-3M melanoma = system: MALME-3M melanoma
SK-MEL-5 melanoma = system: SK-MEL-5 melanoma
RPMI-8226 leukemia = system: RPMI-8226 leukemia
CAKI-1 renal = system: CAKI-1 renal
IGROV1 ovarian = system: IGROV1 ovarian
DMS 114 small cell lung = system: DMS 114 small cell lung
NCI-H226 lung = system: NCI-H226 lung
U251 CNS = system: U251 CNS
MOLT-4 leukemia = system: MOLT-4 leukemia
SW-620 colon = system: SW-620 colon
SF-268 CNS = system: SF-268 CNS
TK-10 renal = system: TK-10 renal
UO-31 renal = system: UO-31 renal
LOX IMVI melanoma = system: LOX IMVI melanoma
RXF 393 renal = system: RXF 393 renal
HCC-2998 colon = system: HCC-2998 colon

Measured: TGI

Oc1ccc(-c2nc(=S)[nH][nH]2)cc1
not listed: LOX IMVI melanoma | RXF 393 renal | HCC-2998 colon
> 100 µM: all other assays above

CCCCCCCCCCn1cccc1/C=C/c1ccc(/C=C/c2cccn2CCCCCCCCCC)cc1
not listed: SK-MEL-2 melanoma | HCT-15 colon | SR leukemia | MOLT-4 leukemia
> 100 µM: all other assays above
